This is an account of results in patent publication US20160145247A1, “Aminomethyl-Biaryl Derivatives Complement Factor D inhibitors and uses thereof” (NOVARTIS AG, priority 2013, published 2016).

T1 sequence (P00746 26-253): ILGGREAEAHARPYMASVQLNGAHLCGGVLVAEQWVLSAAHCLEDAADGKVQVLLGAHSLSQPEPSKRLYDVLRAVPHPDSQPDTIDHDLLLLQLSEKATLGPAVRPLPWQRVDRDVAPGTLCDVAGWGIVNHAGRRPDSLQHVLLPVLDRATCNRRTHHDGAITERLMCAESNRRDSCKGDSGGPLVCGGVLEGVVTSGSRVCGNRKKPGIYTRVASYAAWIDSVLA

This assay has as its target T1, factor D (Homo sapiens, UniProt P00746).
T1 construct: made in house; host or cells: E. coli
In words: factor D inhibition assay of Biological Example 2. Type of assay: biochemical.
With `NC(CF)c1cccc(-c2cc(COc3ccccc3CC(=O)O)cc(NCC3CCCC3)c2)c1F` (centres unmarked) [Example 216-E], the midpoint of inhibition, the IC50, lay at 6 nM. With `NCc1cccc(-c2cc(COc3ccccc3CC(=O)O)cc(C(N)C(F)(F)F)c2)c1` (racemic) [Example 207-B, (±)-2-(2-((5-(1-Amino-2,2,2-trifluoroethyl)-3′-(aminomethyl)-[1,1′-biphenyl]-3-yl)methoxy)phenyl)acetic acid] the figure was 5 nM; with `NCc1ccc(F)c(-c2cccc(COc3ccccc3CC(=O)O)c2)c1` [Example 138-E], 1990 nM; with `CC(C)C(=O)Nc1cc(C(=O)Nc2ccccc2CC(=O)O)cc(-c2cc(F)cc(CN)c2)c1` [Example 97, 2-(2-(3′-(Aminomethyl)-5′-fluoro-5-isobutyramido-[1,1′-biphenyl]-3-ylcarboxamido)phenyl)acetic acid], 45 nM. As for `Cc1cc(COc2ccccc2CC(=O)O)cc(-c2cccc([C@@H](C)N)c2F)c1` [Example 210-C, (R)-2-(2-((3′-(1-aminoethyl)-2′-fluoro-5-methyl-[1,1′-biphenyl]-3-yl)methoxy)phenyl)acetic acid], the IC50 – broadly, the concentration needed to halve the response being measured – worked out at 12 nM. `COCCOc1cc(C(=O)Nc2ccccc2CC(=O)O)cc(-c2cccc(CN)c2)c1` [Example 72-B, 2-(2-(3′-(Aminomethyl)-5-(2-methoxyethoxy)-[1,1′-biphenyl]-3-ylcarboxamido)phenyl)acetic acid] displayed an IC50 of 58 nM. With `COc1ccc(C(=O)Nc2ccccc2CC(=O)O)cc1-c1cccc(CN)c1` [Example 8-B, 2-(2-(3′-(Aminomethyl)-6-methoxy-[1,1′-biphenyl]-3-ylcarboxamido)phenyl)acetic acid] the figure was 353 nM; with `NCc1cc(F)cc(-c2cc(Nc3ccn[nH]3)cc(C(=O)Nc3ccccc3CC(=O)O)c2)c1` [Example 79-G], 22 nM. Compound `N[C@H](CO)c1cccc(-c2ccc3c(c2)C(Oc2ccccc2CC(=O)O)CC3)c1` (mixture of isomers) [Example 172, (±)-2-(2-((6-(3-((S)-1-Amino-2-hydroxyethyl)phenyl)-2,3-dihydro-1H-inden-1-yl)oxy)phenyl)acetic acid] had an IC50 of 5880 nM.

Consider `N[C@H](CO)c1cccc(-c2ccc(C(F)(F)F)c(COc3ccccc3CC(=O)O)c2)c1` [Example 167, (S)-2-(2-((3′-(1-Amino-2-hydroxyethyl)-4-(trifluoromethyl)-[1,1′-biphenyl]-3-yl)methoxy)phenyl)acetic acid], for which the IC50 came out at 30 nM.

Regarding `CCC[C@@H](N)c1cccc(-c2cc(COc3ccccc3CC(=O)O)cc(N3CCCC3)c2)c1F` [Example 199-A], the IC50 was determined as 148 nM. The compound `NCc1cc(F)cc(-c2cc(NC3CCOCC3)cc(C(=O)Nc3ccccc3CC(=O)O)c2)c1` [Example 79-D] showed an IC50 of 14 nM. Compound `NCc1cccc(-c2nc(C(=O)Nc3ccccc3CC(=O)O)c[nH]2)c1` [Example 43, 2-(2-(2-(3-(Aminomethyl)phenyl)-1H-imidazole-4-carboxamido)phenyl)acetic acid] registered an IC50 of 1130 nM. Take `C[C@@H](N)c1cccc(-c2cc(COc3ccccc3CC(=O)O)cc(N(C)CC(F)F)c2)c1F` [Example 216-N]: the midpoint of inhibition, the IC50, lay at 24 nM. With `CCOc1cc(COc2ccccc2CC(=O)O)cc(-c2cccc([C@H](N)CO)c2)c1` [Example 115-B], the IC50 came out at 8 nM. With `NCc1cccc(-c2cc(CCC3CC3)cc(COc3ccccc3CC(=O)O)c2)c1` [Example 107-C, 2-(2-((3′-(Aminomethyl)-5-(2-cyclopropylethyl)-[1,1′-biphenyl]-3-yl)methoxy)phenyl)acetic acid] the figure was 2 nM. The compound `NCc1cccc(-c2ccc(Cl)c(C(=O)Nc3ccccc3CC(=O)O)n2)c1` [Example 56-A, 2-(2-(6-(3-(Aminomethyl)phenyl)-3-chloropicolinamido)phenyl)acetic acid] had an IC50 of 107 nM. With `N[C@H](CO)c1cccc(-c2cc(COc3ccccc3CC(=O)O)cc(OCC(F)(F)F)c2)c1` [Example 115-C], the midpoint of inhibition, the IC50, lay at 5 nM. Regarding `C[C@@H](N)c1cccc(-c2cc(CCC3CCCN3)cc(COc3ccccc3CC(=O)O)c2)c1F` (stereo partly drawn) [Example 238, 2-(2-((3′-((R)-1-aminoethyl)-2′-fluoro-5-(2-(pyrrolidin-2-yl)ethyl)-[1,1′-biphenyl]-3-yl)methoxy)phenyl)acetic acid], it took 23 nM to reach half-maximal inhibition (IC50). `C[C@@H](N)c1cccc(-c2cc(NC[C@H]3CCCO3)c3c(c2)C(Oc2ccccc2CC(=O)O)CCC3)c1F` (some centres unmarked) [Example 216-Y] gave an IC50 of 19 nM. `NCc1cccc(-c2cc(Cl)cc(C(=O)Nc3ccccc3CC(=O)O)n2)c1` [Example 41, 2-(2-(6-(3-(Aminomethyl)phenyl)-4-chloropicolinamido)phenyl)acetic acid] registered an IC50 of 74 nM. In turn, `C[C@@H](N)c1cccc(-c2cc(COc3ccccc3CC(=O)O)cc(N3CCC3)c2)c1F` [Example 247, (R)-2-(2-((3′-(1-aminoethyl)-5-(azetidin-1-yl)-2′-fluoro-[1,1′-biphenyl]-3-yl)methoxy)phenyl)acetic acid] gave an IC50 of 10 nM. The compound `N[C@H](CO)c1cc(Cl)cc(-c2cccc(COc3ccccc3CC(=O)O)c2)c1` [Example 277-C, (S)-2-(2-((3′-(1-Amino-2-hydroxyethyl)-5′-chloro-[1,1′-biphenyl]-3-yl)methoxy)phenyl)acetic acid] yielded an IC50 of 190 nM. As for `NCc1cc(F)cc(-c2cccc(C(=O)Nc3cc(F)ccc3CC(=O)O)c2)c1` [Example 21-I], the IC50 was 469 nM. With `N[C@H](CO)c1cc(-c2cccc(COc3ccccc3CC(=O)O)c2)ccn1` [Example 142-G], the IC50 turned out to be 12 nM.

With `Cc1c(-c2cccc(COc3ccccc3CC(=O)O)c2)cccc1[C@H](N)CO` [Example 142-C], inhibition was half-maximal at 49600 nM (IC50). To `Cc1ccc(NC(=O)c2cccc(-c3cc(F)cc(CN)c3)c2)c(CC(=O)O)c1` [Example 22-C, 2-(2-(3′-(aminomethyl)-5′-fluoro-[1,1′-biphenyl]-3-ylcarboxamido)-5-methylphenyl)acetic acid] belongs 835 nM; to `N[C@H](CO)c1cccc(-c2ccc3c(c2)C(Oc2ccccc2CC(=O)O)CCC3)c1` (mixture of isomers) [Example 181, 2-(2-((7-(3-((S)-1-Amino-2-hydroxyethyl)phenyl)-1,2,3,4-tetrahydronaphthalen-1-yl)oxy)phenyl)acetic acid (mixture of diastereomers)], 8 nM; to `NCc1cccc(-c2cc(CCO)cc(COc3ccccc3CC(=O)O)c2)c1` [Example 105-C, 2-(2-((3′-(Aminomethyl)-5-(2-hydroxyethyl)-[1,1′-biphenyl]-3-yl)methoxy)phenyl)acetic acid], 15 nM. Compound `N[C@H](CO)c1cccc(-c2cc(Cl)cc(COc3ccccc3CC(=O)O)c2)c1` [Example 108-B, (S)-2-(2-((3′-(1-Amino-2-hydroxyethyl)-5-chloro-[1,1′-biphenyl]-3-yl)methoxy)phenyl)acetic acid] had an IC50 of 7 nM.

For `CCC[C@@H](N)c1cccc(-c2cc(COC)cc(COc3ccccc3CC(=O)O)c2)c1` [Example 118, (R)-2-(2-((3′-(1-Aminobutyl)-5-(methoxymethyl)-[1,1′-biphenyl]-3-yl)methoxy)phenyl)acetic acid], inhibition was half-maximal at 67 nM (IC50).

`NC(CF)c1cccc(-c2cc(CCc3ccncc3)cc(COc3ccccc3CC(=O)O)c2)c1F` (centres unmarked) [Example 216-Q] displayed an IC50 of 12 nM.
